Data on 38 compounds can be found in US9073892B2, “Indazolyl triazol derivatives” (Merck Serono S.A., priority 2010, dated 2015).

Counter-ions that a name gives are not always drawn. A value given as a limit tells only on which side of the number the result lay.

For this assay, the system named is T1, IRAK1/4 human.
T1 construct: fused on or other part: His tag and TEV cleavage site at the N-terminus
The assay can be described thus: IRAK1/4 phosphorylation IC50 (enzymatic assay, table 2). Type of assay: biochemical. The note with it: human IRAK1/4 phosphorylation. The method, boiled down: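 In 384-well plates, reactions in 50 mM Hepes pH7.0 buffer with MgCl2, DTT, EGTA and BSA combined ATP, compounds in DMSO at 20 µM to 1 nM, and either His-TEV-tagged human IRAK-1 or His-TEV-tagged human IRAK-4 plus STK1-biotin peptide. They ran for 2 or 3 hours alongside 2% DMSO controls. Each value is an IC50 for inhibition.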
Take `c1ccc2c(-c3cn(-c4ccc([C@@H]5C[C@H]6CC[C@@H](C5)N6C5CCCCC5)cc4)nn3)n[nH]c2c1` (single isomer, unassigned) [Example 151, 3-(1-{4-[(3-exo)-8-cyclohexyl-8-azabicyclo[3.2.1]oct-3-yl]phenyl}-1H-1,2,3-triazol-4-yl)-1H-indazole]: the IC50 (usually the concentration that inhibits the measured activity by half) is less than 100 nM.

Consider `c1ccc2c(-c3cn(-c4ccc([C@H]5C[C@H]6CC[C@@H](C5)N6C5CCCCC5)cc4)nn3)n[nH]c2c1` (single isomer, unassigned) [Example 152, 3-(1-{4-[(3-endo)-8-cyclohexyl-8-azabicyclo[3.2.1]oct-3-yl]phenyl}-1H-1,2,3-triazol-4-yl)-1H-indazole], for which the IC50 is 100 to 1000 nM.

As to `NCc1ccc(-n2cc(-c3n[nH]c4ccccc34)nn2)cc1` [Example 12, 1-{4-[4-(1H-indazol-3-yl)-1H-1,2,3-triazol-1-yl]phenyl}methanamine], the IC50 was 1000 to 5000 nM.

Compound `O=C(NCc1ccc(-n2cc(-c3n[nH]c4ccccc34)nn2)cc1)C1CCCC1` [Example 13, N-{4-[4-(1H-indazol-3-yl)-1H-1,2,3-triazol-1-yl]benzyl}cyclopentanecarboxamide] had an IC50 of 1000 to 5000 nM.

Regarding `O=C(CN1CCOCC1)NCc1ccc(-n2cc(-c3n[nH]c4ccccc34)nn2)cc1` [Example 16, N-{4-[4-(1H-indazol-3-yl)-1H-1,2,3-triazol-1-yl]benzyl}-2-morpholin-4-ylacetamide], the IC50 was 1000 to 5000 nM.

In the case of `O=C(NCc1ccc(-n2cc(-c3n[nH]c4ccccc34)nn2)cc1)C1CCOCC1` [Example 17, N-{4-[4-(1H-indazol-3-yl)-1H-1,2,3-triazol-1-yl]benzyl}tetrahydro-2H-pyran-4-carboxamide], the IC50 was 1000 to 5000 nM.

On to `O=C(Cc1ccc(-n2cc(-c3n[nH]c4ccccc34)nn2)cc1)N1CCOCC1` [Example 18, 3-{1-[4-(2-morpholin-4-yl-2-oxoethyl)phenyl]-1H-1,2,3-triazol-4-yl}-1H-indazole], for which the IC50 lay in the range of 100 to 1000 nM.

`c1ccc2c(-c3cn(-c4ccc(N5CCOCC5)nc4)nn3)n[nH]c2c1` [Example 20, 3-[1-(6-morpholin-4-ylpyridin-3-yl)-1H-1,2,3-triazol-4-yl]-1H-indazole] showed an IC50 of 1000 to 5000 nM.

In the case of `CN1CCN(C(=O)CCc2ccc(-n3cc(-c4n[nH]c5ccccc45)nn3)cc2)CC1` [Example 24, 3-(1-{4-[3-(4-methylpiperazin-1-yl)-3-oxopropyl]phenyl}-1H-1,2,3-triazol-4-yl)-1H-indazole], the IC50 was in the range of 1000 to 5000 nM.

As to `CS(=O)(=O)N1CCN(C(=O)c2ccc(-n3cc(-c4n[nH]c5ccccc45)nn3)cc2)CC1` [Example 41, 3-[1-(4-{[4-(methylsulfonyl)piperazin-1-yl]carbonyl}phenyl)-1H-1,2,3-triazol-4-yl]-1H-indazole], the IC50 lay within 100 to 1000 nM.

`O=C(NCC1CCCO1)c1ccc(-n2cc(-c3n[nH]c4ccccc34)nn2)cc1` (centres unmarked) [Example 45, 4-[4-(1H-indazol-3-yl)-1H-1,2,3-triazol-1-yl]-N-(tetrahydrofuran-2-ylmethyl)benzamide] had an IC50 of 100 to 1000 nM.

Compound `CCN(CC)CCNC(=O)c1ccc(-n2cc(-c3n[nH]c4ccccc34)nn2)cc1` [Example 46, N-[2-(diethylamino)ethyl]-4-[4-(1H-indazol-3-yl)-1H-1,2,3-triazol-1-yl]benzamide] gave an IC50 of 100 to 1000 nM.

For `CCN1CCCC1CNC(=O)c1ccc(-n2cc(-c3n[nH]c4ccccc34)nn2)cc1` (centres unmarked) [Example 47, N-[(1-ethylpyrrolidin-2-yl)methyl]-4-[4-(1H-indazol-3-yl)-1H-1,2,3-triazol-1-yl]benzamide], the IC50 lay within 100 to 1000 nM.

`CC1CCCCN1CCCNC(=O)c1ccc(-n2cc(-c3n[nH]c4ccccc34)nn2)cc1` (centres unmarked) [Example 56] showed an IC50 of 100 to 1000 nM.

The compound `N#CCCN1CCN(C(=O)c2ccc(-n3cc(-c4n[nH]c5ccccc45)nn3)cc2)CC1` [Example 57, 3-(4-(4-[4-(1H-indazol-3-yl)-1H-1,2,3-triazol-1-yl]benzoyl}piperazin-1-yl)propanenitrile] had an IC50 of 100 to 1000 nM.

With `O=C(NCCCN1CCOCC1)c1cccc(-n2cc(-c3n[nH]c4ccccc34)nn2)c1` [Example 58, 3-[4-(1H-indazol-3-yl)-1H-1,2,3-triazol-1-yl]-N-(3-morpholin-4-ylpropyl)benzamide], the IC50 was 100 to 1000 nM.

Turning to `CCC1CCCCN1CCCNC(=O)c1ccc(-n2cc(-c3n[nH]c4ccccc34)nn2)cc1` (centres unmarked) [Example 59, N-[3-(2-ethylpiperidin-1-yl)propyl]-4-[4-(1H-indazol-3-yl)-1H-1,2,3-triazol-1-yl]benzamide], the IC50 fell in the range of 100 to 1000 nM.

Regarding `O=C(NCCCN1CCCC1=O)c1ccc(-n2cc(-c3n[nH]c4ccccc34)nn2)cc1` [Example 61, 4-[4-(1H-indazol-3-yl)-1H-1,2,3-triazol-1-yl]-N-[3-(2-oxopyrrolidin-1-yl)propyl]benzamide], the half-inhibitory concentration (IC50) lay in the range of 1000 to 5000 nM.

Regarding `O=C(NCc1cccc(F)c1)c1ccc(-n2cc(-c3n[nH]c4ccccc34)nn2)cc1` [Example 62, N-(3-fluorobenzyl)-4-[4-(1H-indazol-3-yl)-1H-1,2,3-triazol-1-yl]benzamide], the IC50 is 1000 to 5000 nM.

`O=C(NCCCN1CCCCC1)c1cccc(-n2cc(-c3n[nH]c4ccccc34)nn2)c1` [Example 63, 3-[4-(1H-indazol-3-yl)-1H-1,2,3-triazol-1-yl]-N-(3-piperidin-1-ylpropyl)benzamide] returned an IC50 of 1000 to 5000 nM.

`CN(CCNC(=O)c1cccc(-n2cc(-c3n[nH]c4ccccc34)nn2)c1)C1CCCCC1` [Example 64, N-{2-[cyclohexyl(methyl)amino]ethyl}-3-[4-(1H-indazol-3-yl)-1H-1,2,3-triazol-1-yl]benzamide]: the IC50 lay in the range of 1000 to 5000 nM.

`COCCNC(=O)c1cccc(-n2cc(-c3n[nH]c4ccccc34)nn2)c1` [Example 65, 3-[4-(1H-indazol-3-yl)-1H-1,2,3-triazol-1-yl]-N-(2-methoxyethyl)benzamide] displayed an IC50 of 1000 to 5000 nM.

Compound `CC(C)N1CCN(C(=O)c2cccc(-n3cc(-c4n[nH]c5ccccc45)nn3)c2)CC1` [Example 66, 3-(1-{3-[(4-isopropylpiperazin-1-yl)carbonyl]phenyl}-1H-1,2,3-triazol-4-yl)-1H-indazole] came in with an IC50 of 1000 to 5000 nM.

With `O=C(c1cccc(-n2cc(-c3n[nH]c4ccccc34)nn2)c1)N1CCCCC1` [Example 67, 3-{1-[3-(piperidin-1-ylcarbonyl)phenyl]-1H-1,2,3-triazol-4-yl}-1H-indazole], the IC50 is 1000 to 5000 nM.

Turning to `CC(C)NC(=O)c1cccc(-n2cc(-c3n[nH]c4ccccc34)nn2)c1` [Example 68, 3-[4-(1H-indazol-3-yl)-1H-1,2,3-triazol-1-yl]-N-isopropylbenzamide], the concentration for half-maximal inhibition (IC50) is 1000 to 5000 nM.

For `O=C(c1cccc(-n2cc(-c3n[nH]c4ccccc34)nn2)c1)N1CCCC(CN2CCCC2)C1` (centres unmarked) [Example 69, 3-[1-(3-{[3-(pyrrolidin-1-ylmethyl)piperidin-1-yl]carbonyl}phenyl)-1H-1,2,3-triazol-4-yl]-1H-indazole], the IC50 lay within 1000 to 5000 nM.

In turn, `CN1CCN(C(=O)Cc2ccc(-n3cc(-c4n[nH]c5ccccc45)nn3)cc2)CC1` [Example 70] came in with an IC50 of 100 to 1000 nM.

For the compound `O=C(CCc1cccc(-n2cc(-c3n[nH]c4ccccc34)nn2)c1)N1CCCC1` [Example 87, 3-{1-[3-(3-oxo-3-pyrrolidin-1-ylpropyl)phenyl]-1H-1,2,3-triazol-4-yl}-1H-indazole], the IC50 is 1000 to 5000 nM.

On to `CN1CCCC1CCNC(=O)c1ccc(-n2cc(-c3n[nH]c4ccccc34)nn2)cc1` (centres unmarked) [Example 90, 4-[4-(1H-indazol-3-yl)-1H-1,2,3-triazol-1-yl]-N-[2-(1-methylpyrrolidin-2-yl)ethyl]benzamide], for which the IC50 was 100 to 1000 nM.

As for `O=C(c1ccc(-n2cc(-c3n[nH]c4ccccc34)nn2)c(F)c1)N1CCOCC1` [Example 102, 3-{1-[2-fluoro-4-(morpholin-4-ylcarbonyl)phenyl]-1H-1,2,3-triazol-4-yl}-1H-indazole], the IC50 fell in the range of 1000 to 5000 nM.

Compound `O=C(c1ccc(-n2cc(-c3n[nH]c4ccccc34)nn2)cc1)N(CCO)C1CCCCC1` [Example 107, N-cyclohexyl-N-(2-hydroxyethyl)-4-[4-(1H-indazol-3-yl)-1H-1,2,3-triazol-1-yl]benzamide] had an IC50 of 100 to 1000 nM.

With `CN1CCC(NC(=O)c2ccc(-n3cc(-c4n[nH]c5ccccc45)nn3)cc2)CC1` [Example 116, 4-[4-(1H-indazol-3-yl)-1H-1,2,3-triazol-1-yl]-N-(1-methylpiperidin-4-yl)benzamide], the IC50 was 1000 to 5000 nM.

The compound `CCC(O)CNC(=O)c1ccc(-n2cc(-c3n[nH]c4ccccc34)nn2)cc1` (centres unmarked) [Example 119, N-(2-hydroxybutyl)-4-[4-(1H-indazol-3-yl)-1H-1,2,3-triazol-1-yl]benzamide] yielded a half-inhibitory concentration (IC50) of 100 to 1000 nM.

As to `O=C(c1ccc(-n2cc(-c3n[nH]c4ccc(Br)cc34)nn2)cc1)N1CCOCC1` [Example 122, 5-bromo-3-{1-[4-(morpholin-4-ylcarbonyl)phenyl]-1H-1,2,3-triazol-4-yl}-1H-indazole], the IC50 lay within 100 to 1000 nM.

With `C1=C(c2ccc(-n3cc(-c4n[nH]c5ccccc45)nn3)cc2)CCNC1` [Example 131, hydrochloride], the IC50 was 100 to 1000 nM.

`FCCN1CCC(c2ccc(-n3cc(-c4n[nH]c5ccccc45)nn3)cc2)CC1` [Example 133, 3-(1-{4-[1-(2-fluoroethyl)piperidin-4-yl]phenyl}-1H-1,2,3-triazol-4-yl)-1H-indazole] had an IC50 of 100 to 1000 nM.

`CC(=O)N1CCC(c2ccc(-n3cc(-c4n[nH]c5ccccc45)nn3)cc2)CC1` [Example 134, 3-{1-[4-(1-acetylpiperidin-4-yl)phenyl]-1H-1,2,3-triazol-4-yl}-1H-indazole] came in with an IC50 of 100 to 1000 nM.

Regarding `Fc1ccc2c(-c3cn(-c4ccc(C5CCN(CCC(F)(F)F)CC5)cc4)nn3)n[nH]c2c1` [Example 135, 6-fluoro-3-(1-{4-[1-(3,3,3-trifluoropropyl)piperidin-4-yl]phenyl}-1H-1,2,3-triazol-4-yl)-1H-indazole], the IC50 lay within 100 to 1000 nM.
